The test deals with CEM cells HIV-1 protection, formazan growth assay. As to the kind of experiment: NCI AIDS Antiviral Assay. The conditions noted are these: for IC50: measured here: growth of uninfected CEM cells. An outline of the steps:
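Protection of CEM cells against HIV-1 was scored from cell growth (soluble formazan) across five concentrations, with parallel uninfected cells. Lack of protection may reflect toxicity.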

Active and inactive are the calls of the source.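 How the source made its calls: active means compounds giving half or more protection of infected cells from virus-caused growth loss, again on retest; inactive means the rest.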

Consider 31 compounds from PubChem BioAssay AID179 (DTP/NCI, 2004).

As usually defined, the EC50 is the midpoint of the concentration-response curve. One may read the IC50 as the midpoint of a concentration-inhibition curve. Read a low IC50 as greater potency. For the compound `Cc1cc2oc(=N)c(C#N)c(C)c2cc1C`, the EC50 was above 200 µM and the IC50 worked out at 43.7 µM.

In the case of `C=C(C)C1CC[C@]2(C(=O)O)CCC3(C)[C@H](CCC4[C@@]5(C)CC[C@H](OC6OC(CO)C(O)C6OC6OC(C)C(O)C(O)C6O)[C@@](C)(CO)C5CC[C@]43C)C12` (some centres undefined), the result was inactive.

In the case of `CC1OC(Oc2ccc3c(=O)c(-c4ccc(O)cc4)coc3c2)C(O)C(O)C1O` (centres undefined), the EC50 is above 200 µM and the IC50 came to 93.3 µM.

As for `Cc1ccc(/C=C2\CN(C)CC3=C2OC(N)=C(C#N)C3c2ccc(C)cc2)cc1` (centres undefined), the EC50 is above 200 µM and the IC50 turned out to be 10.2 µM.

Turning to `COc1ccc2c3c1OC1CC(O)C=CC31CCN(C)C2` (centres undefined), the EC50 is above 200 µM and the IC50 is above 200 µM.

Regarding `CCOP(=O)(OCC)/C(C#N)=C/c1c[nH]c2ccccc12`, the EC50 is above 200 µM and the 50% inhibitory concentration (IC50) came out at 178 µM.

In the case of `COc1ccc(=O)n(C)n1`, the EC50 is above 1780 µM and the IC50 amounted to 1450 µM.

For `CN1N=Nc2ccccc2C1(O)c1ccc(F)cc1` (centres undefined), the EC50 was above 200 µM and the IC50 is above 200 µM.

Take `CC#CCCN(CC#N)Cc1ccccc1`: the EC50 is above 200 µM and the IC50 is above 200 µM.

Consider `COC(=O)Nc1nc2ccc(C(=O)C3CC3)cc2[nH]1`, for which the EC50 was above 200 µM and the IC50 is 0.219 µM.

For `CNc1cc([N+](=O)[O-])ccc1C(=O)N1CCC[C@H]1CO`, the EC50 is above 200 µM and the IC50 was above 200 µM.

As to `Nc1nc2c3c(ncn3CC(O)CO2)n1` (centres undefined), the EC50 was above 9.55 µM and the IC50 is above 9.55 µM.

On to `Cc1ccc(S(=O)(=O)NCCCSCCSCCCN)cc1`, for which the EC50 is above 257 µM and the IC50 turned out to be 41.7 µM.

As for `O=C1NCCN1/N=C/c1c(Cl)n(-c2ccccc2)c2ccccc12`, the EC50 is above 200 µM and the IC50 is 16.6 µM.

In the case of `CSc1n[nH]c(=O)c2nc[nH]c12`, the EC50 is above 245 µM and the IC50 was above 245 µM.

As to `CCCCc1ccc(Nc2nc(N)c3[nH]cnc3n2)cc1`, the EC50 is above 200 µM and the concentration for half-maximal inhibition (IC50) turned out to be 24.5 µM.

Turning to `COc1cc(OC)c2c(C)cc(=O)oc2c1`, the EC50 was above 200 µM and the IC50 is above 200 µM.

In the case of `COc1ccc(/C=C2/C(=O)N(C(=O)c3ccccc3O)N=C2C)cc1`, the EC50 was above 56.2 µM and the IC50 was determined as 0.0501 µM.

On to `COc1ccc(C2Nc3ccccc3NC3CC(C)(C)CC(=O)C32)cc1` (centres undefined), for which the EC50 is above 257 µM and the IC50 stood at 178 µM.

`c1cc2ccc1C1NCCCN1CCN1CCCNC1c1ccc(cc1)C1NCCCN1CCN1CCCNC21` (centres undefined): the EC50 was above 13.2 µM and the IC50 was found to be 9.33 µM.

Regarding `Nc1nc(Cl)cc(NCCCCCCCCNc2cc(Cl)nc(N)n2)n1`, the outcome was inactive.

Take `S=CN1CCCCC1`: the EC50 is above 200 µM and the IC50 is above 200 µM.

As to `Cc1cc(=O)n2nc(CSc3n[nH]c(=S)s3)sc2n1`, the EC50 was above 200 µM and the IC50 was above 200 µM.

In the case of `CC/C(CC(=O)CCC(=O)Nc1c(C)cccc1C)=N\NC(=O)NN`, the EC50 was above 145 µM and the IC50 is above 145 µM.

On to `N#Cc1c(N2CCCC2)nsc1Nc1ccccc1`, for which the EC50 was above 200 µM and the IC50 is above 200 µM.

`Cc1ccc2c(c1)C1(C)c3cc(C)ccc3SP1S2` (centres undefined): the EC50 is above 12.6 µM and the half-maximal inhibitory concentration (IC50) is above 12.6 µM.

Turning to `CC(C)(C)C1=CP(=O)(c2ccccc2)C=C(C(C)(C)C)N1`, the EC50 was above 200 µM and the IC50 was above 200 µM.

As for `Cc1cc2c(c(=O)o1)C(=O)CC(C)O2` (centres undefined), the EC50 was above 776 µM and the IC50 came out at 117 µM.

Regarding `C/C=C1/C(=C/c2[nH]c(/C=c3\[nH]/c(=C/C4=NC(=O)C(CC)=C4C)c(C)c3CCC(=O)O)c(CCC(=O)O)c2C)NC(=O)C1C` (centres undefined), the outcome was inactive.

Turning to `Cc1cc2nc3[nH]c4ccccc4c3nc2cc1C`, the EC50 was above 20.9 µM and the IC50 is above 20.9 µM.

`COc1ccc(C2CC(c3ccc4ccccc4c3O)=NN2)cc1OC` (centres undefined): the EC50 was above 200 µM and the 50% inhibitory concentration (IC50) was 42.7 µM.
